# According to US20240358693A1, “METHODS OF TREATING PAIN” (Aisa Pharma, Inc., priority 2023, published 2024):
# Tested on: participants with SSc-RP
# Test: Average duration of weekly RP attacks (minutes)
# Type: in vivo, human
# Excerpt: The absolute change in average duration of weekly RP attacks from baseline to the end of each dosing period was and will be a secondary outcome variable. The sponsor-developed participant-informed diary was and will be used to record data. Average duration of weekly RP attacks is defined as the total duration of RP attacks divided by total number of RP attacks within the last 7 days of each dosing period. Total duration of RP attacks during the last 7 days of screening period divided by the total number of RP attacks will be used as baseline for the analysis of all periods. The variable will be calculated similar to frequency data as before.
# [1] = Cilnidipine 20 mg, Excluding Outliers, ITT Population - Part A
# [2] = Cilnidipine 20 mg, Excluding Outliers, by Baseline RCS, subgroup 1, ITT Population - Part A
# [3] = Cilnidipine 20 mg, by Baseline RCS, subgroup 1, ITT Population - Part A
# [4] = Pooled Cilnidipine 10 mg and Cilnidipine 10 mg + Tadalafil 5 mg, n=3, Excluding Outliers, ITT Part A
# [5] = Pooled Cilnidipine 10 mg and Cilnidipine 10 mg + Tadalafil 5 mg, n=3, ITT Part A
# [6] = Pooled Cilnidipine 10 mg and Cilnidipine 10 mg + Tadalafil 5 mg, Baseline RCS subgroup 1 (unnamed), ITT Part A
# [7] = Pooled Cilnidipine 10 mg and Cilnidipine 10 mg + Tadalafil 5 mg, Baseline RCS subgroup 2 (unnamed), ITT Part A
# [8] = Pooled Cilnidipine 10 mg and Cilnidipine 10 mg + Tadalafil 5 mg, Excluding Outliers, Baseline RCS subgroup 1 (unnamed), ITT Part A
# [9] = Pooled Cilnidipine 10 mg and Cilnidipine 10 mg + Tadalafil 5 mg, Excluding Outliers, Baseline RCS subgroup 2 (unnamed), ITT Part A
# [10] = Pooled Cilnidipine 10 mg and Cilnidipine 10 mg + Tadalafil 5 mg, Excluding Outliers, ITT Population - Part A
# [11] = Pooled Cilnidipine 10 mg and Cilnidipine 10 mg + Tadalafil 5 mg, Excluding Outliers, by Baseline RCS, subgroup 1, ITT Population - Part A
compound,measurement,setting,value
"COCCOC(=O)C1=C(C)NC(C)=C(C(=O)OC/C=C/c2ccccc2)C1c1cccc([N+](=O)[O-])c1 (centres unmarked) [Cilnidipine, cilnidipine]","Average Duration of Weekly RP Attacks (All Attacks) Change from Baseline, Median",[1],-1.09 min
same,"Average Duration of Weekly RP Attacks (All Attacks) Percent Change from Baseline, Mean",[1],−24.97%
same,"Average Duration of Weekly RP Attacks (All Attacks) Percent Change from Baseline, Median",[1],−24.97%
same,"Average Duration of Weekly RP Attacks (All Attacks), Mean",[1],16.73 min
same,"Average Duration of Weekly RP Attacks (All Attacks), Median",[1],16.73 min
same,"Average Duration of Weekly RP Attacks (All Attacks) Change from Baseline, Mean",[2],-1.09 min
same,"Average Duration of Weekly RP Attacks (All Attacks) Change from Baseline, Median",[2],-1.09 min
same,"Average Duration of Weekly RP Attacks (All Attacks) Percent Change from Baseline, Mean",[2],−24.97%
same,"Average Duration of Weekly RP Attacks (All Attacks) Percent Change from Baseline, Median",[2],−24.97%
same,"Average Duration of Weekly RP Attacks (All Attacks), Mean",[2],16.73 min
same,"Average Duration of Weekly RP Attacks (All Attacks), Median",[2],16.73 min
same,"Average Duration of Weekly RP Attacks (All Attacks) Change from Baseline, Mean","Cilnidipine 20 mg, ITT Part A",-1.09 min
same,"Average Duration of Weekly RP Attacks (All Attacks) Change from Baseline, Median","Cilnidipine 20 mg, ITT Part A",-1.09 min
same,"Average Duration of Weekly RP Attacks (All Attacks) Percent Change from Baseline, Mean","Cilnidipine 20 mg, ITT Part A",−24.97%
same,"Average Duration of Weekly RP Attacks (All Attacks) Percent Change from Baseline, Median","Cilnidipine 20 mg, ITT Part A",−24.97%
same,"Average Duration of Weekly RP Attacks (All Attacks), Mean","Cilnidipine 20 mg, ITT Part A",16.73 min
same,"Average Duration of Weekly RP Attacks (All Attacks), Median","Cilnidipine 20 mg, ITT Part A",16.73 min
same,"Average Duration of Weekly RP Attacks (All Attacks) Change from Baseline, Mean",[3],-1.09 min
same,"Average Duration of Weekly RP Attacks (All Attacks) Change from Baseline, Median",[3],-1.09 min
same,"Average Duration of Weekly RP Attacks (All Attacks) Percent Change from Baseline, Mean",[3],−24.97%
same,"Average Duration of Weekly RP Attacks (All Attacks) Percent Change from Baseline, Median",[3],−24.97%
same,"Average Duration of Weekly RP Attacks (All Attacks), Mean",[3],16.73 min
same,"Average Duration of Weekly RP Attacks (All Attacks), Median",[3],16.73 min
same,Duration,Cilnidipine (20 mg) (n = 3),−20%
same,Mean % reduction in duration,Cilnidipine (20 mg) (n = 3),20.0%
same,Mean duration of attack at baseline,Cilnidipine (20 mg) (n = 3),19.4
same,"Average Duration of Weekly Symptomatic RP Attacks, Change from Baseline, Mean",[4],-12.11 min
same,"Average Duration of Weekly Symptomatic RP Attacks, Change from Baseline, Median",[4],-16.74 min
same,"Average Duration of Weekly Symptomatic RP Attacks, Mean",[4],29.46 min
same,"Average Duration of Weekly Symptomatic RP Attacks, Median",[4],31.64 min
same,"Average Duration of Weekly Symptomatic RP Attacks, Percent Change from Baseline, Mean",[4],−22.40%
same,"Average Duration of Weekly Symptomatic RP Attacks, Percent Change from Baseline, Median",[4],−33.84%
same,"Average Duration of Weekly Symptomatic RP Attacks, Change from Baseline, Mean",[5],-12.11 min
same,"Average Duration of Weekly Symptomatic RP Attacks, Change from Baseline, Median",[5],-16.74 min
same,"Average Duration of Weekly Symptomatic RP Attacks, Mean",[5],29.46 min
same,"Average Duration of Weekly Symptomatic RP Attacks, Median",[5],31.64 min
same,"Average Duration of Weekly Symptomatic RP Attacks, Percent Change from Baseline, Mean",[5],−22.40%
same,"Average Duration of Weekly Symptomatic RP Attacks, Percent Change from Baseline, Median",[5],−33.84%
same,"Average Duration of Weekly Symptomatic RP Attacks, Change from Baseline, Mean",[6],-8.26 min
same,"Average Duration of Weekly Symptomatic RP Attacks, Change from Baseline, Median",[6],-8.26 min
same,"Average Duration of Weekly Symptomatic RP Attacks, Mean",[6],24.82 min
same,"Average Duration of Weekly Symptomatic RP Attacks, Median",[6],24.82 min
same,"Average Duration of Weekly Symptomatic RP Attacks, Percent Change from Baseline, Mean",[6],−16.67%
same,"Average Duration of Weekly Symptomatic RP Attacks, Percent Change from Baseline, Median",[6],−16.67%
same,"Average Duration of Weekly Symptomatic RP Attacks, Change from Baseline, Mean",[7],-19.82 min
same,"Average Duration of Weekly Symptomatic RP Attacks, Change from Baseline, Median",[7],-19.82 min
same,"Average Duration of Weekly Symptomatic RP Attacks, Mean",[7],38.75 min
same,"Average Duration of Weekly Symptomatic RP Attacks, Median",[7],38.75 min
same,"Average Duration of Weekly Symptomatic RP Attacks, Percent Change from Baseline, Mean",[7],−33.84%
same,"Average Duration of Weekly Symptomatic RP Attacks, Percent Change from Baseline, Median",[7],−33.84%
same,"Average Duration of Weekly Symptomatic RP Attacks, Change from Baseline, Mean",[8],-8.26 min
same,"Average Duration of Weekly Symptomatic RP Attacks, Change from Baseline, Median",[8],-8.26 min
same,"Average Duration of Weekly Symptomatic RP Attacks, Mean",[8],24.82 min
same,"Average Duration of Weekly Symptomatic RP Attacks, Median",[8],24.82 min
same,"Average Duration of Weekly Symptomatic RP Attacks, Percent Change from Baseline, Mean",[8],−16.67%
same,"Average Duration of Weekly Symptomatic RP Attacks, Percent Change from Baseline, Median",[8],−16.67%
same,"Average Duration of Weekly Symptomatic RP Attacks, Change from Baseline, Mean",[9],-19.82 min
same,"Average Duration of Weekly Symptomatic RP Attacks, Change from Baseline, Median",[9],-19.82 min
same,"Average Duration of Weekly Symptomatic RP Attacks, Mean",[9],38.75 min
same,"Average Duration of Weekly Symptomatic RP Attacks, Median",[9],38.75 min
same,"Average Duration of Weekly Symptomatic RP Attacks, Percent Change from Baseline, Mean",[9],−33.84%
same,"Average Duration of Weekly Symptomatic RP Attacks, Percent Change from Baseline, Median",[9],−33.84%
same,"Average Duration of Weekly RP Attacks (All Attacks) Change from Baseline, Mean",[10],-9.54 min
same,"Average Duration of Weekly RP Attacks (All Attacks) Change from Baseline, Median",[10],-8.48 min
same,"Average Duration of Weekly RP Attacks (All Attacks) Percent Change from Baseline, Mean",[10],−19.10%
same,"Average Duration of Weekly RP Attacks (All Attacks) Percent Change from Baseline, Median",[10],−21.20%
same,"Average Duration of Weekly RP Attacks (All Attacks), Mean",[10],27.90 min
same,"Average Duration of Weekly RP Attacks (All Attacks), Median",[10],31.52 min
same,"Average Duration of Weekly RP Attacks (All Attacks) Change from Baseline, Mean",[11],-4.13 min
same,"Average Duration of Weekly RP Attacks (All Attacks) Change from Baseline, Median",[11],-4.13 min
same,"Average Duration of Weekly RP Attacks (All Attacks) Percent Change from Baseline, Mean",[11],−9.97%
same,"Average Duration of Weekly RP Attacks (All Attacks) Percent Change from Baseline, Median",[11],−9.97%
same,"Average Duration of Weekly RP Attacks (All Attacks), Mean",[11],24.76 min
same,"Average Duration of Weekly RP Attacks (All Attacks), Median",[11],24.76 min
